Test results: patent publication US7824912B2, “Methods for ex vivo propagation of adult hepatic stem cells” (Massachusetts Institute of Technology, priority 2005, dated 2010)

Experiments:
[1] = test system: CYP3A4
Description: FIG. 14A, cells were grown in a collagen-Matrigel™ sandwich with serum supplemented medium. FIG. 14B, cells were grown under routine culture conditions, but with serum-free medium. Data are the mean of replicate assays (n=2). Error bars indicate the standard deviation of replicate assays.
We undertook an evaluation of CYP3A4 activity in phHASC strains using a commercially available luciferase-based luminescent assay. The p450-GLO™ CYP3A4 luminescent assay was supplied by Promega Corp. (Madison, Wis.). The assay is based on a caged luciferin substrate that is specifically uncaged by the enzymatic action of CYP3A4. Once uncaged, luciferin is available for luciferase action and light production.
We evaluated the effect of rifampicin under two different conditions with two different concentrations of the solvent carrier DMSO, 0.03% and 5%. Parental phHASCs were evaluated after growth in a collagen-Matrigel™ sandwich, as recommended by the supplier of the p450-GLO™ CYP3A4 luminescent assay (FIG. 14A) or under standard culture conditions with serum-free medium (FIG. 14B).

[2] = test system: somatic liver stem cells; assay: Derivation of phHASC strains from liver cells by the modified SACK method; assay type: cell-based, human
Description: Cells: Human liver cells are tested for blood borne agents, the non-parenchymal (NPC) fraction is place on ice for up to 24 hours and then centrifuged at 800×g for 5 minutes at 4° C. The resulting cell pellet is re-suspended in 50 ml-100 ml cold Dulbecco's Modified Eagle medium (DMEM-high glucose) supplemented with 1% dialyzed fetal bovine serum (DFBS). Based on the count of trypan blue-excluding viable cells, 5×10^6 viable cells are plated in 10-cm diameter cell culture dishes. Initiation Culture Medium: […] Maintenance Culture Medium: DMEM-high glucose supplemented with 10% DFBS, 20 ng/ml recombinant human epidermal growth factor, 0.5 ng/ml transforming growth factor β1, and the respective purine compound at the concentration used in the Initiation Culture Medium. Although initial efforts to derive cell strains by limiting dilution cloning were unsuccessful, we modified the approach by initially culturing primary liver cell preparations at confluent cell densities under conditions of reduced serum and supplementation with SACK agents, TGF-β and EGF (See Table 1). SACK-derived rat adult stem cell strains resist hepatocytic differentiation by TGF-β and EGF. Whereas their non-stem cell progeny undergo cell cycle withdrawal and hepatic differentiation in response to serum reduction and exposure to TGF-β and EGF, in the presence of Xs, the stem cells continue to cycle actively. The first four livers were invested in establishing a modified SACK procedure. Unlike the original procedure developed for derivation of rat hepatic adult stem cells (Lee et al., 2003), the new method is not based on limiting dilution cloning. Instead, the liver cells are initially cultured at confluent cell densities in low serum medium (1% dialyzed fetal bovine serum [dFBS]) supplemented with the growth factors TGFβ and EGF. In addition, higher concentrations of SACK agents are used, e.g. 1.5 mM Xs. These conditions suppress the growth of differentiating liver cells (including troublesome fibroblasts and stellate cells), while promoting the expansion of […]. After initial outgrowth of […] strains, serum supplementation is increased to 10% dFBS for routine maintenance. Table 1 summarizes results obtained when the newly adapted SACK procedure was applied to cell specimens from two livers from […] donors. All strains were cryo-preserved at early passages using a freezing procedure that minimizes the time that cells spend super-cooled before ice formation (Karlsson et al., 1996). This precaution provides a high level of viability (70%-80%) upon thawing the cells.

[3] = test system: phHASC subclone C2; assay: Colcemid arrest assay (CAA) of non-cycling cell fraction; assay type: cell-based, human; details: subclone C2, +Xs compared to -Xs
Description: FIGS. 12A and 12B show CAA analyses of a Xs-derived sub-clone (Parental strain see FIG. 10). […] The new assay is called the colcemid arrest assay (CAA). We used our engineered cell lines with experimentally controlled asymmetric self-renewal to develop it (Rambhatla et al., 2001; FIG. 9). Cell cultures are treated with the microtubule antagonist colcemid for a complete generation period. Conventional methods for propidium iodine staining and standard flow cytometry are used to quantify the DNA content of cells after colcemid treatment. In the presence of colcemid, cycling cells arrest in mitosis of the cell cycle with 4N DNA content. After one generation period, all previously cycling cells contain this amount of DNA. Therefore, for cell cultures with only symmetrically cycling cells, essentially the entire culture arrests in mitosis with 4N DNA (compare FIGS. 9A and 9C). In contrast, the DNA content of non-cycling cells is unchanged. […] Thus, CAA can identify and quantify the cycling stem cell fraction and the arrested differentiated progeny fraction of an asymmetrically self-renewing adult stem cell population (compare FIGS. 9B and 9D). […] In pilot studies with engineered cell lines, the CAA-determined rates were in good agreement with expectations based on previous lineage-specific cell kinetics assays. […]

In the case of `C[S+](C)[O-]` [DMSO, dimethylsulfoxide], the “effect on basal level of CYP3A4 activity” value [1] is reported as “did not affect” and the “increase in CYP3A4 activity” value ([1]; human, 48 h, 5 %) is reported as 6.5 fold.
For `O=c1[nH]cnc2nc[nH]c12` [Hx, hypoxanthine], the “Number of Strains” value ([2]; liver, 2 trials per SACK agent) was 2 and the “Number of Strains” value ([2]; liver, 3 trials per SACK agent) was 3.
With `O=c1[nH]c(=O)c2[nH]cnc2[nH]1` [Xn, xanthine] the “Number of Strains” value ([2]; liver, 2 trials per SACK agent) was 1 and the “Number of Strains” value ([2]; liver, 3 trials per SACK agent) was 3.
For `O=c1[nH]c(=O)c2ncn([C@@H]3O[C@H](CO)[C@@H](O)[C@H]3O)c2[nH]1` [Xs, xanthosine], the non-cycling fraction [3] was “reduced”, the “reliability and effectiveness for developing strains” value ([2]; compared among Hx, Xn and Xs) was “most reliable and effective” and the Sub-clones ([2]; liver) was 9. For the same molecule, the “Number of Strains” value ([2]; liver, 2 trials per SACK agent) was 2 and the “Number of Strains” value ([2]; liver, 3 trials per SACK agent) was 1.
